Measured values reported in ChEMBL document CHEMBL5614402, “Discovery of novel pyrazolo[1,5-a]pyrimidine derivatives as potent reversal agents against ABCB1-mediated multidrug resistance” (Eur J Med Chem, 2024).
The source made the active and inactive calls. No cut-off for these calls is given here.

Columns and labels:
NCI/ADR-RES [1] = test: Reversal of paclitaxel resistance in human MCF7ADR cells assessed as reversal fold by measuring ratio of paclitaxel IC50 to paclitaxel IC50 in presence of test compound at 5 uM incubated for 72 hrs by MTT assay; assay type: functional
MCF7 [2] = test: Antiproliferative activity against human MCF7 cells assessed as survival rate at 5 uM incubated for 72 hrs by MTT assay; assay type: functional; details: read-out: Survival
NCI/ADR-RES [3] = test: Antiproliferative activity against human MCF7ADR cells assessed as survival rate at 5 uM incubated for 72 hrs by MTT assay; assay type: functional; details: read-out: Survival
MCF7 [4] = test: Antiproliferative activity against human MCF7 cells incubated for 72 hrs by MTT assay; assay type: functional, cell-based; details: MCF7, 72 h
NCI/ADR-RES [5] = test: Reversal of paclitaxel resistance in human MCF7ADR cells assessed as reduction in paclitaxel IC50 at 5 uM pretreated with compound for 4 hrs followed by paclitaxel addition and measured after 72 hrs by MTT assay (reference value: 6.68 +/- 0.35 microM); assay type: functional, cell-based
NCI/ADR-RES [6] = test: Antiproliferative activity against human MCF7ADR cells incubated for 72 hrs by MTT assay; assay type: functional, cell-based
MCF7 [7] = test: Reversal of paclitaxel resistance in human MCF7 cells assessed as reduction in paclitaxel IC50 at 10 uM pretreated with compound for 4 hrs followed by paclitaxel addition and measured after 72 hrs by MTT assay (reference value: 2.60 +/- 0.36 nM); assay type: functional, cell-based
NCI/ADR-RES [8] = test: Reversal of paclitaxel resistance in human MCF7ADR cells assessed as reduction in paclitaxel IC50 at 10 uM pretreated with compound for 4 hrs followed by paclitaxel addition and measured after 72 hrs by MTT assay (reference value: 6.68 +/- 0.35 microM); assay type: functional, cell-based
NCI/ADR-RES [9] = test: Reversal of paclitaxel resistance in human MCF7ADR cells assessed as reversal fold by measuring ratio of paclitaxel IC50 to paclitaxel IC50 in presence of test compound at 10 uM incubated for 72 hrs by MTT assay; assay type: functional
MCF7 [10] = test: Reversal of paclitaxel resistance in human MCF7 cells assessed as reduction in paclitaxel IC50 at 5 uM pretreated with compound for 4 hrs followed by paclitaxel addition and measured after 72 hrs by MTT assay (reference value: 2.60 +/- 0.36 nM); assay type: functional, cell-based
MCF7 [11] = test: Reversal of paclitaxel resistance in human MCF7 cells assessed as reversal fold by measuring ratio of paclitaxel IC50 to paclitaxel IC50 in presence of test compound at 10 uM incubated for 72 hrs by MTT assay; assay type: functional
MCF7 [12] = test: Reversal of paclitaxel resistance in human MCF7 cells assessed as reversal fold by measuring ratio of paclitaxel IC50 to paclitaxel IC50 in presence of test compound at 5 uM incubated for 72 hrs by MTT assay; assay type: functional
Tubulin (Homo sapiens) = Tubulin (Homo sapiens) (UniProt P68371+Q9H4B7+P0DPH7+P68366+Q13509+Q71U36+P04350+Q3ZCM7+P07437+P68363+Q9BQE3+Q6PEY2+Q13885+Q9BVA1+Q9BUF5); test: Inhibition of tubulin depolymerization in human MCF7ADR cells assessed as change in microtubule morphology at 10 nM incubated for 72 hrs; assay type: cell-based
NCI/ADR-RES [13] = test: Induction of apoptosis in human MCF7ADR cells assessed as late apoptotic cells at 10 nM by Annexin V-FITC and propidium iodide staining based flow cytometry analysis (reference value: 7.24%); assay type: functional
NCI/ADR-RES [14] = test: Induction of apoptosis in human MCF7ADR cells assessed as early apoptotic cells at 10 nM by Annexin V-FITC and propidium iodide staining based flow cytometry analysis (reference value: 3.87%); assay type: functional
NCI/ADR-RES [15] = test: Induction of apoptosis in human MCF7ADR cells assessed as viable cells at 10 nM by Annexin V-FITC and propidium iodide staining based flow cytometry analysis (reference value: 85.75%); assay type: functional; details: read-out: Activity
NCI/ADR-RES [16] = test: Induction of apoptosis in human MCF7ADR cells assessed as necrotic cells at 10 nM by Annexin V-FITC and propidium iodide staining based flow cytometry analysis (reference value: 3.14%); assay type: functional

Compound	Ratio (NCI/ADR-RES [1])	viability at 5 µM (MCF7 [2]) [%]	viability at 5 µM (NCI/ADR-RES [3]) [%]	IC50 (MCF7 [4]) [µM]	IC50 (NCI/ADR-RES [5]) [µM]	IC50 (NCI/ADR-RES [6]) [µM]	IC50 (MCF7 [7]) [µM]	IC50 (NCI/ADR-RES [8]) [µM]	Ratio (NCI/ADR-RES [9])	IC50 (MCF7 [10]) [µM]	Ratio (MCF7 [11])	Ratio (MCF7 [12])	inhibition (Tubulin (Homo sapiens))	Activity (NCI/ADR-RES [13]) [%]	Activity (NCI/ADR-RES [14]) [%]	viability at 0.01 µM (NCI/ADR-RES [15]) [%]	Activity (NCI/ADR-RES [16]) [%]
COc1ccc(-c2c(C)nc3cc(-c4ccccc4)nn3c2-c2cc(OC)c(OC)c(OC)c2)cc1	151.81	90.2	89.2	7.94	0.048	> 20											
COc1ccc(-c2c(C)nc3cc(-c4cccs4)nn3c2-c2cc(OC)c(OC)c(OC)c2)cc1	136.32	93.6	85.1	> 20	0.049	> 20											
COc1cc(-c2c(-c3ccc(Br)cc3)c(C)nc3cc(-c4cccs4)nn23)cc(OC)c1OC	139.16	94.8	94.2	14.4	0.048	> 20											
COc1cc(-c2c(-c3ccc(F)cc3)c(C)nc3cc(-c4ccco4)nn23)cc(OC)c1OC	37.11	91.6	93.8	> 20	0.18	> 20											
COc1cc(-c2c(-c3ccc(Br)cc3)c(C)nc3cc(-c4ccco4)nn23)cc(OC)c1OC	1.14	94.5	93.6	> 20	5.86	> 20											
COc1ccc(-c2c(C)nc3cc(-c4ccco4)nn3c2-c2cc(OC)c(OC)c(OC)c2)cc1OC	76.78	92.4	97.1	> 20	0.087	> 20											
COc1ccc(-c2c(C)nc3ccnn3c2-c2cc(OC)c(OC)c(OC)c2)cc1OC	2.84	> 99	> 99	> 20	2.35	> 20											
COc1cc(-c2c(-c3ccc(Cl)cc3)c(C)nc3cc(-c4cccs4)nn23)cc(OC)c1OC	81.46	98.2	94.2	> 20	0.082	> 20											
COc1cc(-c2c(C)nc3cc(C)nn3c2-c2cc(OC)c(OC)c(OC)c2)cc(OC)c1OC	14.52	94.4	96.6	> 20	0.46	> 20											
COc1ccc(CCN(C)CCCC(C#N)(c2ccc(OC)c(OC)c2)C(C)C)cc1OC (stereo not drawn) [VERAPAMIL]	39.29	> 99	> 99	> 20	0.17	> 20	0.00268	0.0695	96.11	0.00102	0.97	2.55					
COc1ccc(-c2c(C)nc3cc(C4CC4)nn3c2-c2cc(OC)c(OC)c(OC)c2)cc1	51.28	> 99	95.1	> 20	0.12	> 20											
COc1cc(-c2c(C)nc3cc(C4CC4)nn3c2-c2cc(OC)c(OC)c(OC)c2)cc(OC)c1OC	66.8	95.6	90.5	> 20	0.1	> 20											
COc1ccc(-c2c(C)nc3cc(C)nn3c2-c2cc(OC)c(OC)c(OC)c2)cc1	8.14	> 99	95.2	> 20	0.82	> 20											
CCc1cc2nc(C)c(-c3ccc(OC)cc3)c(-c3cc(OC)c(OC)c(OC)c3)n2n1	27.83	> 99	> 99	> 20	0.24	> 20											
CC(=O)O[C@H]1C(=O)[C@@]2(C)[C@H]([C@H](OC(=O)c3ccccc3)[C@]3(O)C[C@H](OC(=O)[C@H](O)[C@@H](NC(=O)c4ccccc4)c4ccccc4)C(C)=C1C3(C)C)[C@]1(OC(C)=O)CO[C@@H]1C[C@@H]2O [PACLITAXEL]													inactive	6.48	4.93	86.2	2.4
COc1cc(-c2c(-c3ccc(Cl)cc3)c(C)nc3cc(-c4ccco4)nn23)cc(OC)c1OC	1.55	95.8	94.7	> 20	4.3	> 20											
COc1cc(-c2c(-c3ccc(Br)cc3)c(C)nc3cc(-c4ccccc4)nn23)cc(OC)c1OC	126.03	95.2	95.1	> 20	0.053	> 20											
COc1ccc(-c2c(C)nc3ccnn3c2-c2cc(OC)c(OC)c(OC)c2)cc1	2.14	> 99	> 99	> 20	3.12	> 20											
COc1ccc(-c2c(C)nc3cc(-c4ccccc4)nn3c2-c2cc(OC)c(OC)c(OC)c2)cc1OC	139.16	92.7	89.2	> 20	0.048	> 20											
COc1cc(-c2c(-c3ccc(F)cc3)c(C)nc3cc(-c4cccs4)nn23)cc(OC)c1OC	55.67	95.6	90.7	> 20	0.12	> 20											
COc1cc(-c2c(C)nc3ccnn3c2-c2cc(OC)c(OC)c(OC)c2)cc(OC)c1OC	3.15	> 99	> 99	> 20	2.12	> 20											
COc1ccc(-c2c(C)nc3cc(-c4ccco4)nn3c2-c2cc(OC)c(OC)c(OC)c2)cc1	66.8	90.8	93.1	9.53	0.1	> 20											
COc1ccc(-c2c(C)nc3cc(C#N)nn3c2-c2cc(OC)c(OC)c(OC)c2)cc1	10.77	93.9	90.6	> 20	0.62	> 20											
COc1ccc(-c2c(C)nc3cc(-c4cccs4)nn3c2-c2cc(OC)c(OC)c(OC)c2)cc1OC	215.48	94.1	94.6	> 20	0.031	> 20											
COc1ccc(-c2c(C)nc3cc(Br)nn3c2-c2cc(OC)c(OC)c(OC)c2)cc1	4.77	95.4	91.2	> 20	1.4	> 20											
COc1cc(-c2c(-c3ccc(Cl)cc3)c(C)nc3cc(-c4ccccc4)nn23)cc(OC)c1OC	90.27	94.2	90.3	> 20	0.074	> 20											
COc1cc(-c2c(C)nc3cc(-c4ccco4)nn3c2-c2cc(OC)c(OC)c(OC)c2)cc(OC)c1OC	151.81	95.1	89.9	> 20	0.044	> 20											
COc1cc(-c2c(C)nc3cc(-c4ccccc4)nn3c2-c2cc(OC)c(OC)c(OC)c2)cc(OC)c1OC	222.66	96.2	93.5	> 20	0.03	> 20											
